Experimental data: ChEMBL document CHEMBL5537133, “Rational design and optimization of novel 4-methyl quinazoline derivatives as PI3K/HDAC dual inhibitors with benzamide as zinc binding moiety for the treatment of acute myeloid leukemia” (Eur J Med Chem, 2024)
pIC50: −log10 of the molar value. Each block holds one compound with its values, some of them ahead of it.

Columns and labels:
MV4-11 [1] = assay: Antiproliferative activity against human MV4-11 cells assessed as reduction in cell viability incubated for 72 hrs by CCK-8 assay; format: functional, cell-based; details: MV4-11, 72 h
MV4-11 [2] = assay: Antiproliferative activity against human MV4-11 cells assessed as reduction in cell viability incubated for 72 hrs in presence of chidamide by CCK-8 assay; format: functional, cell-based; details: MV4-11, 72 h
[3] = target: Phosphatidylinositol 4,5-bisphosphate 3-kinase catalytic subunit alpha isoform (Homo sapiens, UniProt P42336)
Description: Inhibition of PI3Kalpha (unknown origin) using PIP2 as substrate incubated for 1 hr in presence of ATP by ADP-Glo assay

Histone deacetylase 1 = Histone deacetylase 1 (Homo sapiens, UniProt Q13547)
Description: Inhibition of C-terminal 6His-FLAG-tagged human recombinant HDAC1 (1 to 482 residues) expressed in Sf9 cells using Ac-peptide as substrate preincubated for 15 mins followed by substrate addition and measured after 1 hr by plate reader analysis

[4] = target: Phosphatidylinositol 4,5-bisphosphate 3-kinase catalytic subunit beta isoform (Homo sapiens, UniProt P42338); assay: Inhibition of PI3Kbeta (unknown origin) using PIP2 as substrate incubated for 1 hr in presence of ATP by ADP-Glo assay
[5] = target: Phosphatidylinositol 4,5-bisphosphate 3-kinase catalytic subunit gamma isoform (Homo sapiens, UniProt P48736); assay: Inhibition of PI3Kgamma (unknown origin) using PIP2 as substrate incubated for 1 hr in presence of ATP by ADP-Glo assay
[6] = target: Phosphatidylinositol 4,5-bisphosphate 3-kinase catalytic subunit delta isoform (Homo sapiens, UniProt O00329); assay: Inhibition of PI3Kdelta (unknown origin) using PIP2 as substrate incubated for 1 hr in presence of ATP by ADP-Glo assay
[7] = target: Serine/threonine-protein kinase mTOR (Homo sapiens, UniProt P42345); assay: Inhibition of N-terminal FLAG-tagged recombinant human mTOR (1362 to end residues) using ULight-4E-BP1 (Thr37/46) peptide as substrate incubated for 30 mins in presence of ATP by LANCE ultra assay
Histone deacetylase 2 = Histone deacetylase 2 (Homo sapiens, UniProt Q92769); assay: Inhibition of C-terminal His6-FLAG-tagged human recombinant HDAC2 (1 to 488 residues) expressed in Sf9 cells using Ac-peptide as substrate preincubated for 15 mins followed by substrate addition and measured after 1 hr by plate reader analysis
Histone deacetylase 3 = Histone deacetylase 3 (Homo sapiens, UniProt O15379); assay: Inhibition of HDAC3 (unknown origin)
Histone deacetylase 4 = Histone deacetylase 4 (Homo sapiens, UniProt P56524); assay: Inhibition of N-terminal GST-tagged and C-terminal His-tagged human HDAC4 (627 to 1084 end residues) expressed in baculovirus infected Sf9 cells using Ac-peptide as substrate incubated for 1 hr by plate reader analysis
[8] = target: Protein deacetylase HDAC6 (Homo sapiens, UniProt Q9UBN7); assay: Inhibition of HDAC6 (unknown origin)
Histone deacetylase 8 = Histone deacetylase 8 (Homo sapiens, UniProt Q9BY41); assay: Inhibition of C-terminal His-tagged human recombinant HDAC8 (1 to 377 end residues) expressed in Sf9 cells using Ac-peptide as substrate incubated for 1 hr by plate reader analysis
Histone deacetylase 11 = Histone deacetylase 11 (Homo sapiens, UniProt Q96DB2); assay: Inhibition of human HDAC11 (1 to 347 end residues) expressed in Sf9 cells using Ac-peptide as substrate incubated for 1 hr by plate reader analysis
NB-4 = assay: Antiproliferative activity against human NB4 cells assessed as reduction in cell viability incubated for 72 hrs by CCK-8 assay; format: functional, cell-based; details: NB-4, 72 h
HL-60 = assay: Antiproliferative activity against human HL-60 cells assessed as reduction in cell viability incubated for 72 hrs by CCK-8 assay; format: functional, cell-based; details: HL-60, 72 h
DOHH-2 = assay: Antiproliferative activity against human DOHH-2 cells assessed as reduction in cell viability incubated for 72 hrs by CCK-8 assay; format: functional, cell-based; details: DOHH-2, 72 h
Ramos = assay: Antiproliferative activity against human Ramos cells assessed as reduction in cell viability incubated for 72 hrs by CCK-8 assay
Raji = assay: Antiproliferative activity against human Raji cells assessed as reduction in cell viability incubated for 72 hrs by CCK-8 assay; format: functional, cell-based
[9] = Antiproliferative activity against human MINO cells assessed as reduction in cell viability incubated for 72 hrs by CCK-8 assay
L1210 = assay: Antiproliferative activity against mouse L1210 cells assessed as reduction in cell viability incubated for 72 hrs by CCK-8 assay; format: functional, cell-based; details: L1210, 72 h
[10] = tested on: Friend leukemia cell line; assay: Antiproliferative activity against mouse Friend leukemia cell line assessed as reduction in cell viability incubated for 72 hrs by CCK-8 assay; format: functional, cell-based
BaF3 = assay: Antiproliferative activity against mouse BaF3 cells assessed as reduction in cell viability incubated for 72 hrs by CCK-8 assay; format: functional, cell-based; details: BaF3, 72 h
EL4 = assay: Antiproliferative activity against mouse EL4 cells assessed as reduction in cell viability incubated for 72 hrs by CCK-8 assay; format: functional, cell-based; details: EL4, 72 h
[11] = Terminal half life in ICR mouse at 6 mg/kg, iv measured after 24 hrs by LC-MS/MS analysis; format: ADME, organism-based; details: in vivo
[12] = Terminal half life in ICR mouse at 60 mg/kg, po measured after 24 hrs by LC-MS/MS analysis; format: ADME, organism-based; details: in vivo, read-out: beta t1/2 (converted)
[13] = Tmax in ICR mouse at 60 mg/kg, po measured after 24 hrs by LC-MS/MS analysis; format: ADME, organism-based; details: in vivo
[14] = Cmax in ICR mouse at 60 mg/kg, po measured after 24 hrs by LC-MS/MS analysis; format: ADME, organism-based; details: in vivo
[15] = AUC(0 to t) in ICR mouse at 6 mg/kg, iv measured after 24 hrs by LC-MS/MS analysis; format: ADME, organism-based; details: in vivo
[16] = AUC(0 to t) in ICR mouse at 60 mg/kg, po measured after 24 hrs by LC-MS/MS analysis; format: ADME, organism-based; details: in vivo
[17] = AUC(0 to infinity) in ICR mouse at 6 mg/kg, iv measured after 24 hrs by LC-MS/MS analysis; format: ADME, organism-based; details: in vivo
[18] = AUC(0 to infinity) in ICR mouse at 60 mg/kg, po measured after 24 hrs by LC-MS/MS analysis; format: ADME, organism-based; details: ICR, in vivo
[19] = Apparent volume of distribution in ICR mouse at 6 mg/kg, iv measured after 24 hrs by LC-MS/MS analysis; format: ADME, organism-based; details: in vivo
[20] = Oral bioavailability in ICR mouse at 60 mg/kg measured after 24 hrs by LC-MS/MS analysis; format: ADME, organism-based; details: in vivo
MV4-11 [21] = assay: Antitumor activity against human MV4-11 cells xenografted in BALB/c nude mouse assessed as tumor growth inhibition at 10 mg/kg, ip administered once daily for 14 days relative to control; format: functional; details: MV4-11, 336 h, time 14 day, read-out: TGI
MV4-11 [22] = assay: Antitumor activity against human MV4-11 cells xenografted in BALB/c nude mouse assessed as tumor growth inhibition at 20 mg/kg, ip administered once daily for 14 days relative to control; format: functional; details: MV4-11, 336 h, time 14 day, read-out: TGI
MV4-11 [23] = assay: Antitumor activity against human MV4-11 cells xenografted in BALB/c nude mouse assessed as tumor growth inhibition at 60 mg/kg, po administered once daily for 14 days relative to control; format: functional; details: MV4-11, 336 h, time 14 day, read-out: TGI
[24] = Toxicity in BALB/c nude mouse xenografted with human MV4-11 cells assessed as change in body weight at 10 to 20 mg/kg, ip administered only daily for 14 days and measured twice a week; format: organism-based; details: in vivo, 336 h, dose 10-20 mg/kg, time 14 day
[25] = Toxicity in BALB/c nude mouse xenografted with human MV4-11 cells assessed as change in body weight at 60 mg/kg, po administered only daily for 14 days and measured twice a week; format: organism-based; details: in vivo, 336 h, time 14 day

Sequence of Histone deacetylase 1 (Q13547 whole entry, canonical isoform): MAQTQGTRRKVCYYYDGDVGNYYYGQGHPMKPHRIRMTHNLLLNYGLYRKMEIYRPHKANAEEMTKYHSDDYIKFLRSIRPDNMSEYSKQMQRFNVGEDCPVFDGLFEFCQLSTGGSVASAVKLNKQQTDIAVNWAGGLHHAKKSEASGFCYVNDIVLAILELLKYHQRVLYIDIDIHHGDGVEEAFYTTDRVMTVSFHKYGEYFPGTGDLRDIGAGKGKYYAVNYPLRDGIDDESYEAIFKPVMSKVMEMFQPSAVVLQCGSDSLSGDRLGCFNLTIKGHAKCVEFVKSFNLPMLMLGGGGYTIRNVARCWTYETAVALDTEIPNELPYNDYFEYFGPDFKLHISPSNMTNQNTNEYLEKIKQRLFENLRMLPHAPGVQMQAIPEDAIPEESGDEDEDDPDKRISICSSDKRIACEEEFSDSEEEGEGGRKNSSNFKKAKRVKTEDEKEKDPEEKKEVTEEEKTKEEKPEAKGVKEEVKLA
Sequence of Phosphatidylinositol 4,5-bisphosphate 3-kinase catalytic subunit alpha isoform (P42336 whole entry, canonical isoform): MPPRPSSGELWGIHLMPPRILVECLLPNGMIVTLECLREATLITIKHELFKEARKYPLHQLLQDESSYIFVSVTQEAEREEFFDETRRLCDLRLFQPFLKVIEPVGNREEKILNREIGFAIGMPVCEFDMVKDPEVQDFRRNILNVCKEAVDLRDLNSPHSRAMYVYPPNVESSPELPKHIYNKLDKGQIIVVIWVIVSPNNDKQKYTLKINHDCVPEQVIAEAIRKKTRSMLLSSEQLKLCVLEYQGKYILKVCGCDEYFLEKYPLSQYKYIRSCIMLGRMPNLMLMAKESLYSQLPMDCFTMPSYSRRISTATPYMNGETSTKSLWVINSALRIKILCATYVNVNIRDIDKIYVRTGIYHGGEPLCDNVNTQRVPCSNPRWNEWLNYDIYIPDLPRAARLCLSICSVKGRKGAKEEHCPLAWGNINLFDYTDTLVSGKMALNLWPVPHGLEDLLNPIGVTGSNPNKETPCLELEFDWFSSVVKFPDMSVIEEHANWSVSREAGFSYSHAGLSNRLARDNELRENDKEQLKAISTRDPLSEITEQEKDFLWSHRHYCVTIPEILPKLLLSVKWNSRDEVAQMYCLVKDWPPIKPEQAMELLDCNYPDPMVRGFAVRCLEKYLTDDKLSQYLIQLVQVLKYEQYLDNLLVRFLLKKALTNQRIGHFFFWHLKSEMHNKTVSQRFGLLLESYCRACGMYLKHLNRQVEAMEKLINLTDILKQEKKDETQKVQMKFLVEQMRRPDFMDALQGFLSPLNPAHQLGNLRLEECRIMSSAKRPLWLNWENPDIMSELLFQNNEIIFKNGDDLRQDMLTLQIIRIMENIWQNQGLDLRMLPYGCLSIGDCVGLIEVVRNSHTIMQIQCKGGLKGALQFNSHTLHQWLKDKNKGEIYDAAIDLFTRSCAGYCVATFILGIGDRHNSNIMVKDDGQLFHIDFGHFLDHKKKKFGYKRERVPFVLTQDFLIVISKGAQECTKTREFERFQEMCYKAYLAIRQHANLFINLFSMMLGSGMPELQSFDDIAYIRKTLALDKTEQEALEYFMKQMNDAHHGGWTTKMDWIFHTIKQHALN
Sequence of Phosphatidylinositol 4,5-bisphosphate 3-kinase catalytic subunit gamma isoform (P48736 whole entry, canonical isoform): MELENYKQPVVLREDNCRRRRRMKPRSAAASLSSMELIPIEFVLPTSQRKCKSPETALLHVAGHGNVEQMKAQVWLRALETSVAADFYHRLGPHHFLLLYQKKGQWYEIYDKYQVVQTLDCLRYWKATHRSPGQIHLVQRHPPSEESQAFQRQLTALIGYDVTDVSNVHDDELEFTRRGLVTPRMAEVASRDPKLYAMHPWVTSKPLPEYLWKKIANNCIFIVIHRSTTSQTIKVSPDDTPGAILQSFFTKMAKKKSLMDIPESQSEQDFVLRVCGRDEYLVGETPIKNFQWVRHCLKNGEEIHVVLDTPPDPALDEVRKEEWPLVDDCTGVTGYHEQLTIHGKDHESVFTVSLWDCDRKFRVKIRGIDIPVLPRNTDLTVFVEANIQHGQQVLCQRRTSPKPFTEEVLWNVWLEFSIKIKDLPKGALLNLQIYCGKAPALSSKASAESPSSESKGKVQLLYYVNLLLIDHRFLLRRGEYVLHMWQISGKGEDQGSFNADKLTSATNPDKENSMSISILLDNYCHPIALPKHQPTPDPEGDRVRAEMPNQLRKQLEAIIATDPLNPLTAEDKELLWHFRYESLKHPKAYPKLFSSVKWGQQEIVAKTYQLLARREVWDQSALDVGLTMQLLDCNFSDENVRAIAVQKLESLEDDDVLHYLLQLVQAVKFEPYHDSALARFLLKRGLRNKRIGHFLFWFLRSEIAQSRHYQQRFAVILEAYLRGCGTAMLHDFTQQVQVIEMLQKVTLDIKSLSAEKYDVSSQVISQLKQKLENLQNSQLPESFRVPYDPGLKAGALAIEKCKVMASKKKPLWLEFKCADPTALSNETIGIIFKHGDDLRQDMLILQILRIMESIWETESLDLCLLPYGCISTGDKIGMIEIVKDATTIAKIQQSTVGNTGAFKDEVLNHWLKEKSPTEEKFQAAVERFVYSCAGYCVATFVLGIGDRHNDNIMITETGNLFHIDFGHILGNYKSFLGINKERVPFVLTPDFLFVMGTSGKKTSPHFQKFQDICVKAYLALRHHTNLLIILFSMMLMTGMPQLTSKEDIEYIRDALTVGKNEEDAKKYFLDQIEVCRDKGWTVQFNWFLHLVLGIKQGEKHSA
Sequence of Histone deacetylase 11 (Q96DB2 whole entry): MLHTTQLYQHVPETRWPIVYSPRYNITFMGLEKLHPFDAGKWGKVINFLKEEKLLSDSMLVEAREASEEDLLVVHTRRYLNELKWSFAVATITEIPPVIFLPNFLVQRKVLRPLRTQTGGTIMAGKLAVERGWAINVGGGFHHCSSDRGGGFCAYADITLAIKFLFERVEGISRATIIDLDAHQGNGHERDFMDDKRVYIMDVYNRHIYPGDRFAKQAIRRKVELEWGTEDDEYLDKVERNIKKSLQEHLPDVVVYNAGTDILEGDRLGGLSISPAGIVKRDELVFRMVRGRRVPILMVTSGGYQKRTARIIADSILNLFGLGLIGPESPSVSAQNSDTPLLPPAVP
Sequence of Histone deacetylase 3 (O15379 whole entry): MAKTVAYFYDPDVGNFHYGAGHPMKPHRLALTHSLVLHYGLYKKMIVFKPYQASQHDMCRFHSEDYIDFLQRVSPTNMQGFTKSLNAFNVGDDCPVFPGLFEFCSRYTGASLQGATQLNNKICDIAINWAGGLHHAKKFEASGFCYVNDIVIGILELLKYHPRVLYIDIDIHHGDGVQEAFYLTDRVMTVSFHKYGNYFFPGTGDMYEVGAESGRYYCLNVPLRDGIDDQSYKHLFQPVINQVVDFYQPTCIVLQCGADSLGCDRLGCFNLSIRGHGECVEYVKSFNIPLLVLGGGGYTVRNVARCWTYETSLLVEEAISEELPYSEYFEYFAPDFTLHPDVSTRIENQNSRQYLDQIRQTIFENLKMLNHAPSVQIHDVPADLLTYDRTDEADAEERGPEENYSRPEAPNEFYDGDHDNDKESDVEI
Sequence of Histone deacetylase 2 (Q92769 whole entry, the tested form may be a part): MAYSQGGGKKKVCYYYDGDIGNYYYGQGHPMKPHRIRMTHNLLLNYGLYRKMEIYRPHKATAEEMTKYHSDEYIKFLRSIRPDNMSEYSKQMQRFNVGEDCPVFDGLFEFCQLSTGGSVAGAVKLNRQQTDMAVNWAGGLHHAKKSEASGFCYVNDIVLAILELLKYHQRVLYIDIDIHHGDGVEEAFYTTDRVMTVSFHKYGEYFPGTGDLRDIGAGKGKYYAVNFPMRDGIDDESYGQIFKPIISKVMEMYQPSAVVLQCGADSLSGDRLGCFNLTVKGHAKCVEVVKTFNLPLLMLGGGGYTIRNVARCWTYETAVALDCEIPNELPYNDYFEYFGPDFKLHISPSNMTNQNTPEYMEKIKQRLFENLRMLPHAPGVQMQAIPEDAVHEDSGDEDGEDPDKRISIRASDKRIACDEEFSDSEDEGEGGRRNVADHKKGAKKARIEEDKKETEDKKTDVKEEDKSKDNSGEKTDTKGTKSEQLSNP
Sequence of Histone deacetylase 8 (Q9BY41 whole entry): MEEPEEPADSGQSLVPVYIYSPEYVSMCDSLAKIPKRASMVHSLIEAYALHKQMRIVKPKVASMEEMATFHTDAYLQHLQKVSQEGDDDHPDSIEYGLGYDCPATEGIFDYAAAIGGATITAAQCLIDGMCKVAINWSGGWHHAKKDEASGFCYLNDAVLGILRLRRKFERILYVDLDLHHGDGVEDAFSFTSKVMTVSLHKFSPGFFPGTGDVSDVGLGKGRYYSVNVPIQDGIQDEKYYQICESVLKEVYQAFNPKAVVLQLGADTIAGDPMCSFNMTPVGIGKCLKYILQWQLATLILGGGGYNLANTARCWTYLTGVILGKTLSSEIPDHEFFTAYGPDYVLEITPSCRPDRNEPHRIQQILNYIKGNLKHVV

pIC50 (MV4-11 [1]): 5.46
pIC50 (MV4-11 [2]): 6.72
SMILES: Cc1nc(NC(=O)N2CCC[C@H]2C(N)=O)sc1-c1ccnc(C(C)(C)C(F)(F)F)c1 [ALPELISIB]

pIC50 (MV4-11 [1]): 7.70
pIC50 [3]: 9.70
pIC50 (Histone deacetylase 1): 5.45
SMILES: COc1ncc(-c2cc(OCCCCC(=O)Nc3ccccc3N)c3ncnc(C)c3c2)cc1NS(=O)(=O)c1ccc(F)cc1F

pIC50 (MV4-11 [1]): 6.39
pIC50 [3]: 9.24
pIC50 (Histone deacetylase 1): 7.25
SMILES: COc1ncc(-c2cc(OCCOc3ccc(C(=O)Nc4ccccc4N)cc3)c3ncnc(C)c3c2)cc1NS(=O)(=O)c1ccc(F)cc1F

pIC50 (MV4-11 [1]): 7.70
pIC50 [3]: 9.55
pIC50 (Histone deacetylase 1): 6.28
SMILES: COc1ncc(-c2cc(OCCCCCCCC(=O)Nc3ccccc3N)c3ncnc(C)c3c2)cc1NS(=O)(=O)c1ccc(F)cc1F

pIC50 (MV4-11 [1]): 6.41
pIC50 [3]: 9.41
pIC50 (Histone deacetylase 1): 7.02
SMILES: COc1ncc(-c2cc(OCCCOc3ccc(C(=O)Nc4ccccc4N)cc3)c3ncnc(C)c3c2)cc1NS(=O)(=O)c1ccc(F)cc1F

pIC50 (MV4-11 [1]): 7.30
pIC50 [4]: 9.21
pIC50 [5]: 7.82
pIC50 [6]: 8.74
pIC50 [7]: 8.02
pIC50 (Histone deacetylase 2): 7.07
pIC50 (Histone deacetylase 3): 8.18
pIC50 (Histone deacetylase 4): < 5.00
pIC50 [8]: < 5.00
pIC50 (Histone deacetylase 8): < 5.00
pIC50 (Histone deacetylase 11): 5.45
pIC50 (HL-60): 6.48
pIC50 (Ramos): 5.30
pIC50 (Raji): 5.34
pIC50 (L1210): 6.07
pIC50 [10]: 6.49
pIC50 (BaF3): 7.10
beta t1/2 [11]: 2.43 h
half-life [12]: 4.46 h
Tmax [13]: 0.25 h
Cmax [14]: 306 ng/mL
AUC(0-t) at 24 h [15]: 4880 ng·h/mL
AUC(0-t) at 24 h [16]: 1230 ng·h/mL
AUC [17]: 4930 ng·h/mL
AUC(0-inf) [18]: 1710 ng·h/mL
Vz [19]: 4.27 L/kg
bioavailability [20]: 3.5%
pIC50 [3]: 9.59
pIC50 (Histone deacetylase 1): 7.55
SMILES: COc1ncc(-c2cc(OCCCc3ccc(C(=O)Nc4ccccc4N)cc3)c3ncnc(C)c3c2)cc1NS(=O)(=O)c1ccc(F)cc1F
pIC50 (NB-4): 6.43
pIC50 (DOHH-2): 5.28
pIC50 [9]: 5.18
pIC50 (EL4): 6.08
inhibition in vivo at 10 mg/kg (MV4-11 [21]): 50%
inhibition in vivo at 20 mg/kg (MV4-11 [22]): 60.7%
inhibition in vivo at 60 mg/kg (MV4-11 [23]): 64.3%
Activity [24]: Non-Toxic
Activity [25]: Non-Toxic

pIC50 (MV4-11 [1]): 6.60
SMILES: COc1ncc(-c2cc(OCCCCCCC(=O)NO)c3ncnc(C)c3c2)cc1F
